# In ChEMBL document CHEMBL3616469, “Synthesis, electronic properties, antioxidant and antibacterial activity of some new benzimidazoles” (Bioorg Med Chem, 2015):
# The source made the active and inactive calls. No cut-off for these calls is given here.
# Legend:
# [1] = Antioxidant activity assessed as inhibition of AAPH-induced lipid peroxidation at 200 ug/ml after 3 hrs by TBA-MDA test; format: physicochemical
# [2] = Antioxidant activity assessed as inhibition of AAPH-induced lipid peroxidation after 3 hrs by TBA-MDA test; format: physicochemical
# Pseudomonas aeruginosa = experiment: Antibacterial activity against Pseudomonas aeruginosa ATCC 9027 by broth microdilution method; format: functional
# Staphylococcus aureus = experiment: Antibacterial activity against Staphylococcus aureus ATCC 6538 by broth microdilution method; format: functional
# Escherichia coli = experiment: Antibacterial activity against Escherichia coli ATCC 8739 by broth microdilution method; format: functional
# Bacillus spizizenii = experiment: Antibacterial activity against Bacillus subtilis ATCC 6633 by broth microdilution method; format: functional
# [3] = tested on: Salmonella enterica subsp. enterica serovar Abony; experiment: Antibacterial activity against Salmonella abony NCTC 6017 by broth microdilution method; format: functional
SMILES,inhibition (INH) [1],IC50 [2],MIC (Pseudomonas aeruginosa),MIC (Staphylococcus aureus),MIC (Escherichia coli),MIC (Bacillus spizizenii),MIC [3]
Cc1ccc2c(c1)n(CC(=O)c1ccccc1)c(=N)n2CC(=O)c1ccccc1,39.26%,> 200 µg/mL,inactive,500 µg/mL,inactive,500 µg/mL,inactive
N=c1n(CC(=O)c2ccccc2)c2ccc([N+](=O)[O-])cc2n1CC(=O)c1ccccc1,23.43%,> 200 µg/mL,inactive,inactive,inactive,1000 µg/mL,inactive
O=C1O[C@H]([C@@H](O)CO)C(O)=C1O [ASCORBIC ACID],99.9%,9.12 µg/mL,,,,,
CCOC(=O)Cn1c(=N)n(CC(=O)OCC)c2cc(C)ccc21,55.87%,176.58 µg/mL,inactive,inactive,inactive,inactive,inactive
C[C@H]1c2cccc(O)c2C(=O)C2=C(O)[C@]3(O)C(=O)C(C(N)=O)=C(O)[C@@H](N(C)C)[C@@H]3[C@@H](O)[C@@H]21.O [DOXYCYCLINE],,,12.5 µg/mL,0.78 µg/mL,0.78 µg/mL,1.56 µg/mL,6.25 µg/mL
O=c1c(O)c(-c2ccc(O)c(O)c2)oc2cc(O)cc(O)c12 [QUERCETIN],91.12%,10.47 µg/mL,,,,,
Cc1ccc2c(c1)n(CCCc1ccccc1)c(=N)n2CCCc1ccccc1,62.15%,144.88 µg/mL,inactive,16 µg/mL,500 µg/mL,125 µg/mL,500 µg/mL
CCOC(=O)Cn1c(=N)n(CC(=O)OCC)c2cc(C(=O)c3ccccc3)ccc21,74.04%,141.89 µg/mL,inactive,inactive,inactive,inactive,inactive

# The next lines start with results.
inhibition (INH) [1],IC50 [2],SMILES,MIC (Pseudomonas aeruginosa),MIC (Staphylococcus aureus),MIC (Escherichia coli),MIC (Bacillus spizizenii),MIC [3]
75.76%,86.97 µg/mL,O=C(c1ccccc1)c1ccc2c(c1)nc1s/c(=C\c3ccccc3F)c(=O)n12,,,,,
60.8%,85.51 µg/mL,O=C(c1ccccc1)c1ccc2c(c1)nc1s/c(=C\c3ccc4c(c3)OCO4)c(=O)n12,,,,,
90.76%,53.7 µg/mL,O=C(c1ccccc1)c1ccc2c(c1)nc1s/c(=C\c3ccc(F)cc3)c(=O)n12,,,,,
80.35%,74.11 µg/mL,COc1ccccc1/C=c1\sc2nc3cc(C(=O)c4ccccc4)ccc3n2c1=O,,,,,
99.98%,3.79 µg/mL,O=C(O)/C=C/c1ccc(O)c(O)c1 [CAFFEIC ACID],,,,,
85.61%,7.74 µg/mL,Cc1c(C)c2c(c(C)c1O)CCC(C)(C(=O)O)O2 (stereo unspecified) [TROLOX],,,,,
